According to US8129527B2, “Analogs of dehydrophenylahistins and their therapeutic use” (Nereus Pharmacuticals, Inc., priority 2006, dated 2012):
Converted amounts (≈) assume the structure as drawn. Read-outs that look alike come from different tables or passages of the source.

Assays:
Epidermophyton floccosum = assay: Antifungal susceptibility testing, broth dilution (MIC/MFC); assay type: cell-based
Experimental: (§1) Specifically, disclosed compounds were evaluated alongside commercially available microtubulin inhibitors as well as recognized antifungal agents. […].
(§2) Microorganisms against which these compounds were tested included: Candida albicans, Candida glabrata, Aspergillus fumigatus, Trichophyton rubrum, Trichophyton mentagrophytes, Epidermophyton floccosum. With the exception of Candida glabrata (one isolate), two isolates of each species were tested.
(§3) Drug concentrations were 0.03-16 μg/ml for the investigational compounds, 0.015-8 μg/ml for itraconazole and griseofulvin.
(§4) The minimum lethal concentration (MLC) was determined by plating […] from the MIC concentration and each concentration above the MIC. […] When a MIC was obtained, a minimum fungicidal concentration (MFC) was determined to assess the fungistatic/fungicidal nature of the compound. […] The compound is scored as fungistatic if the cells are able to resume growth and fungicidal if no regrowth is possible because the compound had killed the organisms.

[1] = tested on: Trichophyton mentagrophytes; assay: as above; assay type: cell-based; settings: Trichophyton mentagrophytes
Experimental: as §1, §2, §3, §4

Trichophyton rubrum = assay: as above; assay type: cell-based; settings: Trichophyton rubrum
Experimental: (§5) Specifically, disclosed compounds were evaluated alongside commercially available microtubulin inhibitors as well as recognized antifungal agents.
as §2
(§6) The minimum lethal concentration (MLC) was determined by plating […] from the MIC concentration and each concentration above the MIC. […] When a MIC was obtained, a minimum fungicidal concentration (MFC) was determined to assess the fungistatic/fungicidal nature of the compound.

HT-29 cells = assay: Additional cytotoxicity assays, resazurin (Table 3.1); assay type: cell-based, human; settings: Table 3.1
Experimental: 10× concentrated serial dilutions of the two compounds were prepared in appropriate culture medium for final concentrations ranging from 2.0×10^−5 M to 2.0×10^−10 M. Ten μl volumes of the 10× serial dilutions were added to the test wells in triplicate and the plates returned to the incubator for 48 hours.
(§7) Following 48 hours of drug exposure 10 μl of 0.2 mg/ml resazurin (obtained from Sigma-Aldrich Chemical Co.) in Mg^2+, Ca^2+ free PBS was added to each well and the plates were returned to the incubator for 3-4 hours. […] Resazurin dye without cells was used to determine the background, which was subtracted from the data for all experimental wells. The data were analyzed using Prism software (GraphPad Software).
Additional cytotoxicity assays were performed as described above under this example, using Resazurin fluorescence as an indicator of cell viability.

[2] = tested on: HL-60 human acute promyelocytic leukemia cells; assay: Cell growth inhibition assay, resazurin (Example 11); assay type: cell-based; settings: mean values of two independent experiments
Experimental: (§8) Human uterine sarcoma (MES-SA; CRL-1976), its multidrug resistant derivative (MES-SA/Dx5; CRL-1977), human acute promyelocytic leukemia cells (HL-60; CCL-240) and its multidrug resistant derivative (HL-60/MX2; CRL-2257) were purchased from ATCC and maintained in appropriate culture media. The cells were cultured in an incubator at 37° C. in 5% CO2 and 95% humidified air.
(§9) For cell growth inhibition assays, MES-SA and MES-SA/Dx5 cells were both seeded at 3×10^3 cells/well in 90 μl complete media into 96 well (Corning; 3904) black-walled, clear-bottom tissue culture plates and the plates were incubated overnight to allow cells to establish and enter log phase growth. HL-60 and HL-60/MX2 cells were both seeded at 5×10^4 cells/well in 90 μl complete media into 96 well plates on the day of compound addition. 20 mM stock solutions of the compounds were prepared in 100% DMSO and stored at −80° C. […] Ten μl volumes of the 10× serial dilutions were added to the test wells in triplicate and the plates returned to the incubator for 48 hours. The final concentration of DMSO was 0.25% in all samples.
as §7, with “exposure,” for “exposure”, “phosphate buffered saline” for “PBS”, “3-6” for “3-4”, “dye in medium” for “dye”, “wells.” for “wells. The data were analyzed using Prism software (GraphPad Software).”
(§10) HL-60/MX2 is a multidrug resistant tumor cell line derived from the human promyelocytic leukemia cell line, HL-60 and expresses reduced topoisomerase II activity. The data presented in Table 20 summarize the growth inhibitory effects of NPI-2421, NPI-2463, NPI-2503, NPI-2504 and NPI-2506 against HL-60 and its multidrug resistant derivative HL-60/MX2. Mitoxantrone, the topoisomerase II targeting agent was included as a control.

[3] = tested on: MES-SA human uterine sarcoma; assay: as above; assay type: cell-based; settings: mean ± standard deviation of three independent experiments
Experimental: as §8, §9
as §7, with “exposure,” for “exposure”, “phosphate buffered saline” for “PBS”, “3-6” for “3-4”, “dye in medium” for “dye”, “wells.” for “wells. The data were analyzed using Prism software (GraphPad Software).”
(§11) The multidrug resistant MES-SA/Dx5 tumor cell line was derived from the human uterine sarcoma MES-SA tumor cell line and expresses elevated P-Glycoprotein (P-gp), an ATP dependent efflux pump. The data in Table 19 summarize the growth inhibitory effects of NPI-2421, NPI-2463, NPI-2503, NPI-2504 and NPI-2506 against MES-SA and its multidrug resistant derivative MES-SA/Dx5. Paclitaxel, a known substrate of the P-gp pump was included as a control.

[4] = tested on: MES-SA/Dx5 multidrug resistant; assay: as above; assay type: cell-based, human
Experimental: as §8, §9
as §7, with “exposure,” for “exposure”, “phosphate buffered saline” for “PBS”, “3-6” for “3-4”, “dye in medium” for “dye”, “wells.” for “wells. The data were analyzed using Prism software (GraphPad Software).”
as §11

[5] = tested on: HL-60/MX2 multidrug resistant; assay: as above; assay type: cell-based, human
Experimental: as §8, §9
as §7, with “exposure,” for “exposure”, “phosphate buffered saline” for “PBS”, “3-6” for “3-4”, “dye in medium” for “dye”, “wells.” for “wells. The data were analyzed using Prism software (GraphPad Software).”
as §10

[6] = tested on: HT-29 human colorectal carcinoma cells; assay: Cell growth inhibition assay, resazurin (Table 3.2); assay type: cell-based; settings: Table 3.2, HT-29 cells, read-out: EC50 (M) Mean
In short: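 HT-29 cells seeded at 5×10^3/well overnight, then exposed in triplicate to compounds at final 20 μM to […] (0.25% DMSO) for 48 h at 37° C. Viability read by resazurin reduction after 3-4 h further incubation, with cell-free dye background subtracted.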

[7] = tested on: NCI-H292 non-small cell lung carcinoma; assay: Cell growth inhibition assay, resazurin (Example 11); assay type: cell-based; settings: Homo sapiens, 48 hours, mean ± SD where n ≧ 3, ** n = 1
Experimental: (§12) The growth inhibitory activity of NPI-2421, NPI-2463, NPI-2503 and NPI-2504 were determined against selected human (colorectal adenocarcinoma, HT-29; breast adenocarcinoma, MDA-MB-231; non-small cell lung carcinoma, NCI-H292 and prostate carcinomas, PC-3 and DU 145) and mouse (melanoma, B16-F10) tumor cell lines.
(§13) HT-29 (HTB-38), MDA-MB-231 (HTB-26), NCI-H292 (CRL-1848), B16-F10 (CRL-6475), PC-3 (CRL-1435) and DU 145 (HTB-81) cells were all purchased from the ATCC. The cell lines were maintained in their respective ATCC recommended culture media and cultured in an incubator at 37° C. in 5% CO2 and 95% humidified air.
(§14) 20 mM stock solutions of compounds were prepared in 100% DMSO and stored at −80° C. 10× concentrated serial dilutions of the compounds were prepared in B16-F10 cell culture medium for final concentrations ranging from 20 μM to […]. Ten μl volumes of the 10× serial dilutions were added to the test wells in triplicate and the plates returned to the incubator for 48 hours. The final concentration of DMSO was 0.25% in all samples.
as §7, with “exposure,” for “exposure”, “phosphate buffered saline” for “PBS”, “3-6” for “3-4”, “dye in medium” for “dye”, “wells.” for “wells. The data were analyzed using Prism software (GraphPad Software).”

B16-F10 melanoma = assay: as above; assay type: cell-based; settings: Mus musculus, 48 hours, mean ± SD where n ≧ 3
Experimental: as §12, §13, §14
as §7, with “exposure,” for “exposure”, “phosphate buffered saline” for “PBS”, “3-6” for “3-4”, “dye in medium” for “dye”, “wells.” for “wells. The data were analyzed using Prism software (GraphPad Software).”

[8] = tested on: MDA-MB-231 breast adenocarcinoma; assay: as above; assay type: cell-based; settings: Homo sapiens, 48 hours, mean ± SD where n ≧ 3
Experimental: as §12, §13, §14
as §7, with “exposure,” for “exposure”, “phosphate buffered saline” for “PBS”, “3-6” for “3-4”, “dye in medium” for “dye”, “wells.” for “wells. The data were analyzed using Prism software (GraphPad Software).”

PC-3 prostate carcinoma = assay: as above; assay type: cell-based; settings: Homo sapiens, 48 hours, mean ± SD where n ≧ 3, ** n = 1
Experimental: as §12, §13, §14
as §7, with “exposure,” for “exposure”, “phosphate buffered saline” for “PBS”, “3-6” for “3-4”, “dye in medium” for “dye”, “wells.” for “wells. The data were analyzed using Prism software (GraphPad Software).”

[9] = tested on: HT-29 colorectal adenocarcinoma; assay: as above; assay type: cell-based; settings: Homo sapiens, 48 hours, mean ± SD where n ≧ 3
Experimental: as §12, §13, §14
as §7, with “exposure,” for “exposure”, “phosphate buffered saline” for “PBS”, “3-6” for “3-4”, “dye in medium” for “dye”, “wells.” for “wells. The data were analyzed using Prism software (GraphPad Software).”

HuVEC = assay: Action on microtubule function, α-tubulin staining; settings: 2 μM, thirty minutes exposure
MAP-rich microtubules = assay: Microtubule mean length distributions, transmission electron microscopy; assay type: biochemical, bovine; settings: in words
Experimental: Transmission electron microscopy was used to determine the mean length distribution of microtubules in the absence or presence of tested agent. At 75 minutes and prior to sedimentation, 10 μl aliquots from the polymer mass experiments were fixed by dilution into 290 μl PEM100-buffered 0.2% glutaraldehyde. Thirty microliters of fixed sample was settled onto formvar-coated 150 ICG mesh electron microscope grids for 90 seconds. Excess sample was wicked off with Whatman filter paper. Thirty microliters of cytochrome C (1 mg/ml) was applied for 30 seconds to enhance protofilament resolution and facilitate negative staining. Uranyl acetate (1.5%) was applied for 20 seconds and the excess was wicked off Grids were viewed in a Jeol electron microscope-1200 EX11 at 2000× and 30,000× magnification. The Zeiss MOPIII was used to determine microtubule length distributions and mean lengths for at least 100 microtubules per sample.

Candida glabrata = assay: Antifungal susceptibility testing, broth dilution (MIC/MFC); assay type: cell-based; settings: Nakaseomyces glabratus; C. glabrata; read-out: MIC
Experimental: as §5, §2, §6

Candida albicans = assay: as above; assay type: cell-based
Experimental: as §5, §2, §6

**Q.** With `CC(C)(C)c1[nH]cnc1/C=C1\NC(=O)[C@H](Cc2ccccc2)NC1=O` [Compound 2460, (−)-tBu-PLH] as the compound, how does the MIC (Epidermophyton floccosum; E. floccosum isolate #1) read?
**A.** > 16 µg/mL

**Q.** What about the MIC (Epidermophyton floccosum; E. floccosum isolate #2) of the same compound?
**A.** > 16 µg/mL

**Q.** What about the MFC ([1]; T. mentagrophytes isolate #1) of the same compound?
**A.** > 16 µg/mL

**Q.** And the MIC ([1]; T. mentagrophytes isolate #1)?
**A.** 4 µg/mL (≈ 11.8 µM)

**Q.** What about the MIC ([1]; T. mentagrophytes isolate #2) of the same compound?
**A.** > 16 µg/mL

**Q.** What about the MFC (Trichophyton rubrum; T. rubrum isolate #1) of the same compound?
**A.** 0.125 µg/mL (≈ 0.369 µM)

**Q.** What about the MIC (Trichophyton rubrum; T. rubrum isolate #1) of the same compound?
**A.** < 0.03 µg/mL

**Q.** What about the MFC (Trichophyton rubrum; T. rubrum isolate #2) of the same compound?
**A.** < 0.03 µg/mL

**Q.** What about the MIC (Trichophyton rubrum; T. rubrum isolate #2) of the same compound?
**A.** < 0.03 µg/mL

**Q.** And the EC50 (HT-29 cells; Homo sapiens, HT-29, read-out: EC50 (M) Mean)?
**A.** 2.55e-07 M

**Q.** And the “% cytotox Mean” value (HT-29 cells)?
**A.** 87%

**Q.** Which results are given for `CC(C)(C)c1ocnc1/C=c1\[nH]c(=O)/c(=C/c2c(F)c(F)cc(F)c2F)[nH]c1=O` [Compound 2504, tBu-oxadelta-PLH-2,3,5,6-tetrafluoro]?
**A.** EC50 [2]: 30 nM; EC50 [3]: 13 ± 3 nM; EC50 ([4]; Homo sapiens, MES-SA/Dx5, mean ± standard deviation of three independent experiments): 14 ± 3 nM; cytotoxic activity against both MES-SA and MES-SA/Dx5 ([4]; in words): retained equivalent cytotoxic activity; Fold change ([4]; ratio of EC50 values (MES-SA/Dx5:MES-SA)): 1.1; EC50 ([5]; Homo sapiens, HL60/MX2, HL-60/MX2, mean values of two independent experiments): 13 nM; cytotoxic activity against both HL-60 and HL-60/MX2 ([5]; in words): retained cytotoxic activity; Fold change ([5]; ratio of EC50 values (HL-60/MX2:HL-60)): 0.4; EC50 [6]: 1.48e-08 M; EC50 [7]: 42 nM; EC50 (B16-F10 melanoma): 14 ± 3 nM; EC50 [8]: 17 nM; EC50 (PC-3 prostate carcinoma): > 2000 nM; EC50 [9]: 11 nM

**Q.** What does the source list for `COc1cc2c(c(OC)c1OC)-c1ccc(OC)c(=O)cc1[C@@H](NC(C)=O)CC2` [Colchicine]?
**A.** microtubule depolymerization in HuVEC cells (HuVEC): induced microtubule depolymerization; MT nucleation (MAP-rich microtubules): did not affect MT nucleation; MIC (Candida glabrata): > 128 µg/mL; MIC (Candida albicans; C. albicans 10231): >128 µg/mL; MIC (Candida albicans; Candida albicans, C. albicans 90028, read-out: MIC): > 128 µg/mL
